Earlier results as cited in patent US20040092565A1, “Composition and method of sustaining chemotherapeutic effect while reducing dose of chemotherapeutic agent using cox-2 inhibitor and statin” (priority 2001, published 2004).
Read-outs that look alike come from different tables or passages of the source.

How the values were obtained:
[1] = package insert
prostate cancer specimen = settings: mice, in vivo
[2] = system: cisplatin-induced side effects; settings: 5 g of glutathione immediately before cisplatin
[3] = system: Prostate Cancer Cell Line LNCaP; settings: literature reports on LNCaP and human prostate carcinoma cells

CS(=O)(=O)c1ccc(C2=C(c3ccccc3)C(=O)OC2)cc1 [rofecoxib]
time to maximum plasma concentration ([1]; for some persons): 2 to 9 h | time to maximum plasma concentration ([1]; on average): 2 to 3 h

CS(=O)(=O)Nc1ccc([N+](=O)[O-])cc1OC1CCCCC1 [NS398]
angiogenesis of prostate cancer specimen (prostate cancer specimen): inhibit angiogenesis

N[C@@H](CCC(=O)N[C@@H](CS)C(=O)NCC(=O)O)C(=O)O [glutathione, gamma-Glu-Cys-Gly]
intensity of hematologic toxicity ([2]; compared with control group): significantly less pronounced | overall survival ([2]; vs. 10.5 months in the other group, no statistical difference): 13.5 months

CC[C@H](C)C(=O)O[C@H]1C[C@@H](C)C=C2C=C[C@H](C)[C@H](CC[C@@H]3C[C@@H](O)CC(=O)O3)[C@H]21 [lovastatin]
therapeutic value in prostate cancer [3]: had therapeutic value in treating prostate cancer
